According to patent publication US20100240591A1, “TPP II INHIBITORS FOR USE IN THE TREATMENT OF AUTOIMMUNE AND INFLAMMATORY DISEASES AND TRANSPLANT REJECTION” (ONCOREG AB, priority 2007, published 2010):
Where “and” joins values, the source holds several entries; their conditions need not be identical. Equal values may be shown once. The star is where a group is joined. Cbz = O=C(OCc1ccccc1)*

Assays:
[1] = tested on: EL-4 T-lymphoma cells; experiment: Growth of EL-4 T-lymphoma cells in vivo in syngeneic C57BI/6 mice; set-up: species or system mouse; conditions: 13.8 mg/kg Z-GLA-OH added to 5 mg/kg Dexamethasone, twice weekly, C57BI/6 mice (FIG. 9)
Experimental: To test whether our TPPII inhibitors could improve the therapeutic effects of an anti-inflammatory drug in vivo, we examined growth of the T cell-derived lymphoma line EL-4 in vivo, in mice subjected to Cortisone-treatment. We used the derivate Dexamethasone at 5 mg/kg, a dose previously reported to cause thymocyte apoptosis, and a block of T cell responses in vivo (Brewer, J. A., Kanagawa, O., Sleckman, B. P., Muglia, L. J., Thymocyte apoptosis induced by T cell activation is mediated by glucocorticoids in vivo. J. Immunol. 2002, 169:1837-43.). The glucocorticoid receptor of T cells is crucial for curtailing lethal immune activation (Brewer J A, Khor B, Vogt S K, Muglia L M, Fujiwara H, Haegele K E, Sleckman B P, Muglia L J. T-cell glucocorticoid receptor is required to suppress COX-2-mediated lethal immune activation. Nat. Med. 2003 October; 9(10):1318-22.). Inhibited activation and proliferation of T cells in vivo by Dexamethasone-treatment is a standard method to treat patients with auto-immune, inflammatory as well as transplantation rejection diseases. It is however clear that disease symptoms, as well as immune activation and proliferation, are sometimes not controlled by Dexamethasone, or other Cortisone derivatives. […]
5×10^6 EL-4 T-lymphoma cells were inoculated subcutaneously into syngeneic C57BI/6 mice. […] The size of EL-4 lymphoma tumours were measured manually twice weekly. […]

[2] = tested on: Subtilisin; conditions: bacterial homologue of the eukaryotic TPP II; cited from earlier work
[3] = molecular target: T1, TPPII (Mus musculus, UniProt Q64514); experiment: Immuno-cytochemical staining of TPPII in live EL-4 cells treated with inhibitor; assay type: cell-based; set-up: endogenous in cells; host or cells: EL-4 mouse T-cell lymphoma; conditions: 2 hours, 10 micro-M
Experimental: Immunocytochemistry. Cells were attached to glass cover slips through cytospin and fixed in acetone:methanol (1:1) for 1 hour; then the slides were rehydrated in BSS buffer for 1 hour. The first antibody was added and remained for 1 hour until a brief wash in BSS, after which a secondary conjugate (anti-rabbit-FITC) was added and incubated for 1 hour.
Then the slides were washed and stained with Hoescht 333258 for 30 min. Finally, the slides were mounted with DABCO mounting buffer and kept at 4° C. until analysis.
We performed immuno-cytochemical staining to test whether targeting of TPPII in live cells affected enzyme expression or distribution, by the use of a chicken anti-TPPII serum.

[4] = molecular target: T1, TPPII; experiment: Inhibition of cleavage of AAF-AMC by enriched TPP II (fluorometric peptidase assay); assay type: biochemical; set-up: 1 ug of high molecular weight protein was used as enzyme in peptidase assays; endogenous in cells; EL-4 (mouse T lymphoma) by inference; conditions: for cleavage of AAF-AMC, single reading: arbitrary but relative units; for cleavage of AAF-AMC, mean: mean of three readings
Experimental: Protein Purification, Peptidase Assays and Analysis of DNA Fragmentation. 100×10^6 cells were sedimented and lysed by vortexing in glass beads and homogenisation buffer (50 mM Tris Base pH 7.5, 250 mM Sucrose, 5 mM MgCl2, 1 mM DTT). Cellular lysates were submitted to differential centrifugation where a supernatant from a 1 hour centrifugation at 100,000×g (cytosol) was submitted to 100,000×g centrifugation for 3-5 hours, which sedimented high molecular weight cytosolic proteins/protein complexes. The resulting pellet dissolved in 50 mM Tris Base pH 7.5, 30% Glycerol, 5 mM MgCl2, and 1 mM DTT, and 1 micro-g of high molecular weight protein was used as enzyme in peptidase assays or in Western blotting for TPP II expression. To test the activity of TPP II we used the substrate AAF-AMC (Sigma, St. Louis, Mo.), at 100 micro-M concentration in 100 micro-I of test buffer composed of 50 mM Tri Base pH 7.5, 5 mM MgCl2 and 1 mM DTT. Cleavage activity was measured by emission at 460 nm in a LS50B Luminescence Spectrometer (Perkin Elmer, Boston, Mass.). For analysis of DNA fragmentation cells were seeded in 12-well plates at 10^6 cells/ml and exposed to 25 micro-M etoposide, a DNA topoisomerase II inhibitor commonly used as an apoptosis-inducing agent, to starvation (50% PBS). Cells were seeded at 10^6 cells/ml in 12-well plates and incubated for the indicated times, usually 18-24 hours. DNA from EL-4 control and adapted cells was purified by standard chloroform extraction, and 2.5 micro-g of DNA was loaded on 1.8% agarose gel for detection of DNA from apoptotic cells.
Table 1 contains in vitro data, in fluorometric units which are arbitrary but relative, for the inhibition of cleavage of AAF-AMC (H-Ala-Ala-7-amido-4-methylcoumarin) by compounds at several concentrations. Some beneficial effect is seen for most of the compounds tested.
TPP II protein was enriched, and then a TPP II-preferred fluorogenic substrate AAF-AMC was used. 100×10^6 cells were sedimented and lysed by vortexing in glass beads and homogenisation buffer (50 mM Tris Base pH 7.5, 250 mM Sucrose, 5 mM MgCl2, 1 mM DTT). Cellular lysates were subjected to differential centrifugation; first the cellular homogenate was centrifuged at 14,000 rpm for 15 min, and then the supernatant was transferred to ultra-centrifugation tubes. Next the sample was ultra-centrifugated at 100,000×g for 1 hour, and the supernatant (denoted as cytosol in most biochemical literature) was subjected to 100,000×g centrifugation for 5 hours, which sedimented high molecular weight cytosolic proteins/protein complexes. The resulting pellet dissolved in 50 mM Tris Base pH 7.5, 30% Glycerol, 5 mM MgCl2, and 1 mM DTT, and 1 ug of high molecular weight protein was used as enzyme in peptidase assays.
To test the activity of TPP II we used the substrate and AAF-AMC (Sigma, St. Louis, Mo.), at 100 uM concentration in 100 ul of test buffer composed of 50 mM Tri Base pH 7.5, 5 mM MgCl2 and 1 mM DTT. To stop reactions we used dilution with 900 ul 1% SDS solution. Cleavage activity was measured by emission at 460 nm in a LS50B Luminescence Spectrometer (Perkin Elmer, Boston, Mass.).

T1 sequence (Q64514 2-1262 limits assumed): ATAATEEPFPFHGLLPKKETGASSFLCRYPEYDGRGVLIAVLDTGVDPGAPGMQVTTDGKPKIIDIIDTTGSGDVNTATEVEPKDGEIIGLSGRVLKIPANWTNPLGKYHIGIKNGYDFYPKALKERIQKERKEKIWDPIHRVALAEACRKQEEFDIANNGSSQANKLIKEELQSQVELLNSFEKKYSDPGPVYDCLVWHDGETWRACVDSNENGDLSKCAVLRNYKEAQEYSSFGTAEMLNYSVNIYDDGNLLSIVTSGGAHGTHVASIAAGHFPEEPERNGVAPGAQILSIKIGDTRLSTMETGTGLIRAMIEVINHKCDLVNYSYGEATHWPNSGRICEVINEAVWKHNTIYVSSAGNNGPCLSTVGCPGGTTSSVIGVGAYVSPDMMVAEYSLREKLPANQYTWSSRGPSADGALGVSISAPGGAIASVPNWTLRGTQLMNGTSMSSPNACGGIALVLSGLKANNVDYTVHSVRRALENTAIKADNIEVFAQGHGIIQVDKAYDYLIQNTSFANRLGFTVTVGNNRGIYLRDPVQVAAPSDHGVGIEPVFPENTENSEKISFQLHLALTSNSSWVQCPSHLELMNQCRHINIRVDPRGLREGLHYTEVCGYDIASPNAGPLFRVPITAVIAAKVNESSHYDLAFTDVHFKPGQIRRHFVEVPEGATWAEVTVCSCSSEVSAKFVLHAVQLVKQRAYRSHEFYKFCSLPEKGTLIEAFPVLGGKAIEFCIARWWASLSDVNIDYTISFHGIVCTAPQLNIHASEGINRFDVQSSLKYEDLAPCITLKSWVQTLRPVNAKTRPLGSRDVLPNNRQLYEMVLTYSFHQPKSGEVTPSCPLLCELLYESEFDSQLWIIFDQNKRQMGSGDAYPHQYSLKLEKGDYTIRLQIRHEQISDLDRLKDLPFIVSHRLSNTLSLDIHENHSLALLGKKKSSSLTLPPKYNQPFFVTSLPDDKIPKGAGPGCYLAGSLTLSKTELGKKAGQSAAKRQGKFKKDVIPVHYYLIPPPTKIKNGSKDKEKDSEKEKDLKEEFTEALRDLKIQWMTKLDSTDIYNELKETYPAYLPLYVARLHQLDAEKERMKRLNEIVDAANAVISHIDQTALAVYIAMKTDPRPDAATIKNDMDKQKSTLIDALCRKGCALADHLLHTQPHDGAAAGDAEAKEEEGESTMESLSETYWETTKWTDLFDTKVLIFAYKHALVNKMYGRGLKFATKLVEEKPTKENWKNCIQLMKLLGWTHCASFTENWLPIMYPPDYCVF

Cbz-Gly-Leu-Ala-OH [Z-GLA-OH]
anti-proliferative effect on EL-4 cells in vivo, in combination [1]: increased the anti-proliferative effects of Dexamethasone in some of the mice | inhibition of Subtilisin [2]: found to inhibit | detection of TPPII by immuno-cytochemical staining [3]: rapid decrease in the detection of TPPII, to almost undetectable levels | cleavage of AAF-AMC, single reading ([4]; compound 1 nM): 32.54 fluorometric units and 32.61 fluorometric units and 33.41 fluorometric units | cleavage of AAF-AMC, mean ([4]; compound 1 nM): 32.85 fluorometric units | cleavage of AAF-AMC, single reading ([4]; compound 10 nM): 21.74 fluorometric units and 21.93 fluorometric units and 24.44 fluorometric units | cleavage of AAF-AMC, mean ([4]; compound 10 nM): 22.70 fluorometric units | cleavage of AAF-AMC, single reading ([4]; compound 100 nM): 14.43 fluorometric units and 14.26 fluorometric units and 14.37 fluorometric units | cleavage of AAF-AMC, mean ([4]; compound 100 nM): 14.35 fluorometric units | cleavage of AAF-AMC, single reading ([4]; compound 1 uM): 11.43 fluorometric units and 11.9 fluorometric units and 11.46 fluorometric units | cleavage of AAF-AMC, mean ([4]; compound 1 uM): 11.60 fluorometric units | cleavage of AAF-AMC, single reading ([4]; compound 10 uM): 6.47 fluorometric units and 7.66 fluorometric units and 7.49 fluorometric units | cleavage of AAF-AMC, mean ([4]; compound 10 uM): 7.21 fluorometric units | cleavage of AAF-AMC, single reading ([4]; compound 100 uM, 0 compound about 47-51): 1.14 fluorometric units and 1.44 fluorometric units and 1.55 fluorometric units | cleavage of AAF-AMC, mean ([4]; compound 100 uM): 1.38 fluorometric units
